Patent US11344510B2, “Arylcyclohexylamine derivatives and their use in the treatment of psychiatric disorders” (Gilgamesh Pharmaceuticals, Inc., priority 2019, dated 2022)
Entries after “also recorded” stand apart in the source; their conditions may differ. Where a name gives a salt, the structure may show the parent alone. Read-outs that look alike come from different tables or passages of the source.

Assays:
[1] = Oral bioavailability in mice, Method A; assay type: in vivo; details: CD-1 mice; for F: 10 mg/kg; for half-life / Cmax / AUC(0-inf): male, mouse
Method: Animals. Male CD-1 mice were used in these studies Animals were randomly assigned to treatment groups and were fasted for 4 h before dosing.
Drugs. Test compounds were dissolved in normal saline (ketamine) or de-ionized water (other compounds) and administered intravenously (iv) or orally (po) at a dose of 10 mg/kg (calculated based on freebase) and at a volume of 5 mL/kg body weight. Compounds were tested as the racemates (indicated by “rac” nomenclature) or pure enantiomers (indicated by “R” or “S” nomenclature).
Sample Collection and Bioanalysis. Blood samples were collected under 2,2,2-tribromoethanol anesthesia (150 mg/kg, ip) from the orbital sinus at 0.083, 0.25, 0.5, 1, 2, 4, 8 and 24 h (4 animals per time point) into microcontainers containing K2EDTA Immediately after collection of blood, mice were euthanized by cervical dislocation and brain samples were collected at the same time points. All samples were immediately processed, flash-frozen, and stored at −70° C. until subsequent analysis. Plasma samples were separated by centrifugation of whole blood and aliquots (50 μL) were mixed with 200 μL of internal standard solution (400 ng/mL in 1:1 v/v CH3CN:MeOH). After mixing by pipetting and centrifuging for 4 min at 6000 rpm, 0.5 μL of each supernatant was analyzed for drug using a fit-for-purpose liquid chromatography-tandem mass spectrometry (LC-MS/MS) method, with authentic samples of each analyte used for calibration and identification. Brain samples (weight 100 mg±1 mg) were dispersed in 500 μL, of internal standard solution (400 ng/mL in 4:1 v/v MeOH:water) using zirconium oxide beads (115 mg±5 mg) in The Bullet Blender® homogenizer for 30 s at speed 8. After homogenization, the samples were centrifuged for 4 min at 14,000 rpm and 0.5 μL of each supernatant was analyzed for drug using a fit-for-purpose LC-MS/MS method, with authentic samples of each analyte used for calibration and identification.
Data Analysis. The drug concentrations of samples below the lower limit of quantitation (LLOQ) were designated as zero. Pharmacokinetic data analysis was performed using noncompartmental, bolus injection or extravascular input analysis models in WinNonlin 5.2 (PharSight). Data points below LLOQ were presented as missing to improve validity of t112 calculations.

[2] = HLM stability (Low Activity, Alternative Method); assay type: in vitro ADME; details: both sexes, human, liver microsomes, pH 7.4, Condition 1 column, values marked *: Low Activity, 0.50 mg protein/mL
Outline: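 Pooled male and female human liver microsomes (0.50 mg/mL) in 100 mM PBS pH 7.4 with 1 mM MgCl2 and 1 mM NADPH, compound 1 μM (1.0% solvent), 37° C with shaking, six time points over 60 min. Parent remaining measured by LC-MS/MS; kel, t1/2 and Clint from linear regression of ln(AUC) versus time.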

DAT = target: T1, DAT (Homo sapiens, UniProt Q01959); assay: DAT radioligand binding with [3H]WIN35,428
T1 construct: expressed in transfected cells; host or cells: CHO (uptake)
Method: (§1) Radioligand Binding. Affinity of the test compounds for SERT, NET, and DAT was determined in radioligand binding experiments with [^3H]imipramine, [^3]nisoxetine, and [^3H]WIN35,428, respectively, by WuXi AppTec (Hong Kong) Limited, under the conditions described in Table 15.

NET = target: T2, NET (Homo sapiens, UniProt P23975); assay: NET radioligand binding with [3H]nisoxetine
T2 construct: expressed in transfected cells; host or cells: HEK293
Method: as §1

mice (forced swim test) = assay: Forced swim test in mice, 30-minute pre-treatment; assay type: in vivo, Swiss Webster mice; details: s.c., 30 minutes before test, relative to vehicle
Method: Animals. Male Swiss Webster mice, aged 4-5 weeks (body weight 25-30 g, Envigo) were used in the experiments Animals were housed in groups of 4-5 under controlled temperatures and 12-hour light/dark cycles, with ad libitum food (Teklad 7001 rodent diet) and water. These studies were carried out in strict accordance with the recommendations in the Guide for the Care and Use of Laboratory Animals of the National Institutes of Health. All efforts were made to minimize suffering.
Drugs and Drug Administration. Imipramine hydrochloride was administered intraperitoneally (i.p.) at a dose of 30 mg/kg. Other compounds were tested as the racemates (indicated by “rac” nomenclature) and were administered subcutaneously (s.c.) as the hydrochloride salts. Normal saline was used as the vehicle and all compounds were administered at a volume of 10 mL/kg, 30 minutes before behavioral testing.
Forced Swim Test (FST). Group size was n=10 per treatment Animals were acclimated to the testing room 30 minutes prior to behavioral testing. Mice were placed individually in a cylinder of water measuring 5 inches wide by 10 inches tall and maintained at 24-25° C. The activity of each mouse was recorded for 6 minutes using Noldus Ethovision tracking software, with periods of inactivity being automatically quantified.
Statistical Analysis. The data points shown are the mean±standard error of the mean (SEM). Analysis was performed using GraphPad Prism 6. Indicated statistical comparisons represent the results of unpaired, two-tailed t tests relative to vehicle (not corrected for multiple comparisons).

[3] = calculated based on brain exposure
[4] = brain, 10 mg/kg iv, read-out: t1/2 (iv)
[5] = brain, 10 mg/kg po, read-out: t1/2 (po)
[6] = plasma, 10 mg/kg iv, read-out: AUC0-inf (iv) (converted)
[7] = plasma, 10 mg/kg iv, read-out: t1/2 (iv)
[8] = plasma, 10 mg/kg po, read-out: AUC0-inf (po) (converted)
[9] = plasma, 10 mg/kg po, read-out: t1/2 (po)
[10] = plasma, absolute oral bioavailability

T1 sequence (Q01959 whole entry, species assumed): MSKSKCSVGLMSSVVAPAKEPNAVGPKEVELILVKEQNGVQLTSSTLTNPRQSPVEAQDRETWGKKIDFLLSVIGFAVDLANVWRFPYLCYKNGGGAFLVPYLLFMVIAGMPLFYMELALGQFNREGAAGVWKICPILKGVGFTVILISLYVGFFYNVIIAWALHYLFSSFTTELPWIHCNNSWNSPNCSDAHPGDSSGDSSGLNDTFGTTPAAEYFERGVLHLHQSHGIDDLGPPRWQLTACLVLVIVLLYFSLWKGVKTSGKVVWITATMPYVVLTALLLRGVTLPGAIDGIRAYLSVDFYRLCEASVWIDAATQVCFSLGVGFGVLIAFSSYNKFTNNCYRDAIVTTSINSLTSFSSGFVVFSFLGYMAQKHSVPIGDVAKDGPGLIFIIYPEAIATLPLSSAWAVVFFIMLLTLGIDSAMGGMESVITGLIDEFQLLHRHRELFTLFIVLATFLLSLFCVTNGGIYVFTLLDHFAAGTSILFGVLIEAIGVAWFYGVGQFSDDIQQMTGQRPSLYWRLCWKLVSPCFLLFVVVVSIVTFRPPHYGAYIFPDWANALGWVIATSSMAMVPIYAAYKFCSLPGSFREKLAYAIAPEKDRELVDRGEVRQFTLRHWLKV
T2 sequence (P23975 whole entry, species assumed): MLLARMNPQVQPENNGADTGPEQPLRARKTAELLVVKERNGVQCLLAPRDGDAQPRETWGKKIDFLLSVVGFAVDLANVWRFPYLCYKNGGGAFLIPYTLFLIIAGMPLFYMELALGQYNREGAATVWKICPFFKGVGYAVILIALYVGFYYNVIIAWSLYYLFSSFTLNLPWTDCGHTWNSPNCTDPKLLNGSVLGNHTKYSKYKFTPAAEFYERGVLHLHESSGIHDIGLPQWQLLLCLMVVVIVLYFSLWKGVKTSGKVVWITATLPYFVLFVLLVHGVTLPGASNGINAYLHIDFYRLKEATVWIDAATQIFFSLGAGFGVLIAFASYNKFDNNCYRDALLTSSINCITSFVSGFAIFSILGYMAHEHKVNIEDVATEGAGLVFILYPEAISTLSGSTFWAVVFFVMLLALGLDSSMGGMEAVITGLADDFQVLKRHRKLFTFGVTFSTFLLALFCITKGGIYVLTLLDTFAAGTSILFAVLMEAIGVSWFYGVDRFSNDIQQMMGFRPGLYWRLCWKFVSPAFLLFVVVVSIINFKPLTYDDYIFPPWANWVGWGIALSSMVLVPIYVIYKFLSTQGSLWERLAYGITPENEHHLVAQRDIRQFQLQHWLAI

SMILES | AUC0-inf (iv) ([1]; brain, 10 mg/kg iv) | AUC0-inf (po) ([1]; brain, 10 mg/kg po) | F [1, 3] [%] | half-life [1, 4] [h] | Cmax ([1]; brain, 10 mg/kg po) [ng/g] | half-life [1, 5] [h] | AUC(0-inf) [1, 6] [ng·h/mL] | half-life [1, 7] [h] | Cmax ([1]; plasma, 10 mg/kg po) [ng/mL] | AUC(0-inf) [1, 8] [ng·h/mL] | half-life [1, 9] [h] | F [1, 10] [%] | Ki (DAT) [µM] | Ki (NET) [µM] | further results
CN[C@]1(c2ccccc2)CCCCC1=O [Compound 14S, (S)-2-(methylamino)-2-phenylcyclohexan-1-one] | 507,000 ng*min/g | 166,000 ng*min/g | 33 | 2.12 | 3480 | 1.73 | 2180 | 2.37 | 951 | 993 | 2.93 | 45.5 |  |  | 
Cc1ccccc1[C@]1(N)CCCCC1=O [Compound 114R, (R)-2-amino-2-(o-tolyl)cyclohexan-1-one] |  |  |  |  |  |  |  |  |  |  |  |  |  |  | half-life at 1 μM [2]: > 2.42 h; microsomal CLint at 1 μM [2]: < 9.6 µL/min/mg
O=C1CCCC[C@]1(c1ccccc1)N1CCC1 [Compound 84R, (R)-2-(azetidin-1-yl)-2-phenyl-cyclohexan-1-one] |  |  |  |  |  |  |  |  |  |  |  |  | > 94.7 | 77.8 | 
CN[C@@]1(c2ccccc2)CCCCC1=O [Compound 14R, (R)-2-(methylamino)-2-phenylcyclohexan-1-one] | 548,000 ng*min/g | 192,000 ng*min/g | 35 | 11.9 | 3640 | 0.735 | 3520 | 1.18 | 1700 | 1410 | 0.922 | 40 |  |  | 
CNC1(c2ccccc2)CCCCC1=O (racemic) [Compound 14rac, 2-(methylamino)-2-phenylcyclohexan-1-one hydrochloride] | 457,000 ng*min/g | 192,000 ng*min/g | 42 | 0.468 | 3150 | 0.657 | 1930 | 0.562 | 930 | 920 | 0.705 | 48 |  |  | immobility time in FST (mice (forced swim test); hydrochloride): reduced time immobile; also recorded: induced antidepressant-like effects
O=C1CCCC[C@@]1(c1ccccc1)N1CCC1 [Compound 84S, (S)-2-(azetidin-1-yl)-2-phenyl-cyclohexan-1-one] |  |  |  |  |  |  |  |  |  |  |  |  | 91.4 | 53.8 | 
O=C1CCCCC1(c1ccccc1)N1CCCC1 (racemic) [Compound 27rac, 2-phenyl-2-(pyrrolidin-1-yl)cyclohexan-1-one] |  |  |  |  |  |  |  |  |  |  |  |  | 55.1 | 11.5 | 
CNC1(c2ccccc2Cl)CCCCC1=O (racemic) [rac-ketamine, racemic ketamine, reference compound] | 97,000 ng*min/g | 6,030 ng*min/g | 6.2 |  |  |  |  |  |  |  |  | 15 |  |  | immobility time in FST (mice (forced swim test)): did not have effects
Cc1ccccc1[C@@]1(N)CCCCC1=O [Compound 114S, (S)-2-amino-2-(o-tolyl)cyclohexan-1-one] |  |  |  |  |  |  |  |  |  |  |  |  |  |  | half-life at 1 μM [2]: > 2.42 h; microsomal CLint at 1 μM [2]: < 9.6 µL/min/mg
